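Protocol summary: plate cells (96-well), add compound at 5 concentrations, incubate 48 h, interpolate endpoints linearly. The concentration for full growth arrest is given as TGI.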
Legend:
Test in all cases: NCI tumour cell line growth inhibition, 48 h
786-0 renal = system: 786-0 renal
A498 renal = system: A498 renal
A549 NSCLC = system: A549 NSCLC
ACHN renal = system: ACHN renal
BT-549 breast = system: BT-549 breast
CAKI-1 renal = system: CAKI-1 renal
CCRF-CEM leukemia = system: CCRF-CEM leukemia
COLO 205 colon = system: COLO 205 colon
DU-145 prostate = system: DU-145 prostate
EKVX NSCLC = system: EKVX NSCLC
HCC-2998 colon = system: HCC-2998 colon
HCT-116 colon = system: HCT-116 colon
HCT-15 colon = system: HCT-15 colon
HOP-62 NSCLC = system: HOP-62 NSCLC
HOP-92 NSCLC = system: HOP-92 NSCLC
HS 578T breast = system: HS 578T breast
HT29 colon = system: HT29 colon
IGROV1 ovarian = system: IGROV1 ovarian
K-562 leukemia = system: K-562 leukemia
KM12 colon = system: KM12 colon
M14 melanoma = system: M14 melanoma
MALME-3M melanoma = system: MALME-3M melanoma
MCF7 breast = system: MCF7 breast
MDA-MB-231 breast = system: MDA-MB-231 breast
MDA-MB-435 = system: MDA-MB-435
MDA-N = system: MDA-N
MOLT-4 leukemia = system: MOLT-4 leukemia
NCI-H226 lung = system: NCI-H226 lung
NCI-H23 lung = system: NCI-H23 lung
NCI-H460 lung = system: NCI-H460 lung
NCI-H522 lung = system: NCI-H522 lung
NCI/ADR-RES ovarian = system: NCI/ADR-RES ovarian
OVCAR-3 ovarian = system: OVCAR-3 ovarian
OVCAR-4 ovarian = system: OVCAR-4 ovarian
OVCAR-5 ovarian = system: OVCAR-5 ovarian
OVCAR-8 ovarian = system: OVCAR-8 ovarian
PC-3 prostate = system: PC-3 prostate
RXF 393 renal = system: RXF 393 renal
SF-268 CNS = system: SF-268 CNS
SF-295 CNS = system: SF-295 CNS
SF-539 CNS = system: SF-539 CNS
SK-MEL-2 melanoma = system: SK-MEL-2 melanoma
SK-MEL-28 melanoma = system: SK-MEL-28 melanoma
SK-MEL-5 melanoma = system: SK-MEL-5 melanoma
SK-OV-3 ovarian = system: SK-OV-3 ovarian
SN12C renal = system: SN12C renal
SNB-19 CNS = system: SNB-19 CNS
SNB-75 CNS = system: SNB-75 CNS
SR leukemia = system: SR leukemia
SW-620 colon = system: SW-620 colon
T-47D breast = system: T-47D breast
TK-10 renal = system: TK-10 renal
U251 CNS = system: U251 CNS
UACC-257 melanoma = system: UACC-257 melanoma
UACC-62 melanoma = system: UACC-62 melanoma
UO-31 renal = system: UO-31 renal

Measured: TGI

CC(C)C(=O)NCC[C@@H](CNC(=O)OC(C)(C)C)NC(=O)OC(C)(C)C
> 100 µM: 786-0 renal | A498 renal | A549 NSCLC | ACHN renal | BT-549 breast | CAKI-1 renal | CCRF-CEM leukemia | COLO 205 colon | DU-145 prostate | EKVX NSCLC | HCC-2998 colon | HCT-116 colon | HCT-15 colon | HOP-62 NSCLC | HOP-92 NSCLC | HS 578T breast | HT29 colon | IGROV1 ovarian | K-562 leukemia | KM12 colon | M14 melanoma | MALME-3M melanoma | MCF7 breast | MDA-MB-231 breast | MDA-MB-435 | MDA-N | MOLT-4 leukemia | NCI-H226 lung | NCI-H23 lung | NCI-H460 lung | NCI-H522 lung | NCI/ADR-RES ovarian | OVCAR-3 ovarian | OVCAR-4 ovarian | OVCAR-5 ovarian | OVCAR-8 ovarian | PC-3 prostate | RXF 393 renal | SF-268 CNS | SF-295 CNS | SF-539 CNS | SK-MEL-2 melanoma | SK-MEL-28 melanoma | SK-MEL-5 melanoma | SK-OV-3 ovarian | SN12C renal | SNB-19 CNS | SNB-75 CNS | SR leukemia | SW-620 colon | T-47D breast | TK-10 renal | U251 CNS | UACC-257 melanoma | UACC-62 melanoma | UO-31 renal

Source: PubChem BioAssay (NCI)
